Measurements from patent publication US9169270B2, “1-phenyl-substituted heterocyclyl derivatives and their use as prostaglandin D2 receptor modulators” (Actelion Pharmaceuticals Ltd., priority 2012, dated 2015).

Biological target: hCRTH2 receptor (Homo sapiens (Human), UniProt Q9Y5Y4)
Assay: hCRTH2 receptor membranes radioligand (3H-PGD2) displacement assay
Settings: hCRTH2 membrane fragments, Binding-Buffer with 0.1% BSA
Method in brief: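 Membranes from HEK293 cells expressing recombinant hCRTH2 (20 μg/well) incubated with compound and ³H-PGD2 for 90 min at room temperature in Tris buffer pH 7.0 with NaCl, EDTA, 0.1% BSA, 10 mM MnCl2. Bound radioactivity collected on PEI-treated GF/C filters and counted; non-specific binding defined with excess PGD2.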

Sequence of hCRTH2 receptor (Q9Y5Y4 whole entry): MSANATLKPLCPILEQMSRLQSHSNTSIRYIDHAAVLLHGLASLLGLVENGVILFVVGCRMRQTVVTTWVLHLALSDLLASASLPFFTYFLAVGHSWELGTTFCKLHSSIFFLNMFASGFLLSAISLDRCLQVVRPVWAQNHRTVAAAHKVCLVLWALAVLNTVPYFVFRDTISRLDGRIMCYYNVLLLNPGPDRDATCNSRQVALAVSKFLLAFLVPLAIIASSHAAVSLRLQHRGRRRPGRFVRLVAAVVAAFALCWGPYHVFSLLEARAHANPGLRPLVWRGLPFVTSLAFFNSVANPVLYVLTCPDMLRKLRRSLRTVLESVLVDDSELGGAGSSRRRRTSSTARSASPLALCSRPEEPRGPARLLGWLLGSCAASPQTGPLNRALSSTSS

**Q.** Which IC50 does the source give for `CC(C)(C)CCOC(=O)N1CCc2ncsc2[C@H]1c1cc(Cl)ccc1OCC(=O)O` [Example 65, (R)-4-(2-Carboxymethoxy-5-chloro-phenyl)-6,7-dihydro-4H-thiazolo[5,4-c]pyridine-5-carboxylic acid 3,3-dimethyl-butyl ester] here?
**A.** 1.3 nM

**Q.** `CC(C)CCOC(=O)N1CCc2ncsc2[C@H]1c1cc(Cl)ccc1OCC(=O)O` [Example 67, (R)-4-(2-Carboxymethoxy-5-chloro-phenyl)-6,7-dihydro-4H-thiazolo[5,4-c]pyridine-5-carboxylic acid 3-methyl-butyl ester] was tested. Which IC50 did it give?
**A.** 0.4 nM

**Q.** How did the IC50 turn out when `O=C(O)COc1ccc(Cl)cc1[C@@H]1c2scnc2CCN1C(=O)OCC1CCC1` [Example 69, (R)-4-(2-Carboxymethoxy-5-chloro-phenyl)-6,7-dihydro-4H-thiazolo[5,4-c]pyridine-5-carboxylic acid cyclobutylmethyl ester] was run?
**A.** 4.2 nM

**Q.** With `O=C(O)COc1ccc(Cl)cc1[C@@H]1c2scnc2CCN1C(=O)OCc1cccc(F)c1F` [Example 71, (R)-4-(2-Carboxymethoxy-5-chloro-phenyl)-6,7-dihydro-4H-thiazolo[5,4-c]pyridine-5-carboxylic acid 2,3-difluoro-benzyl ester] as the molecule, how does the IC50 read?
**A.** 0.5 nM

**Q.** Which IC50 does the source give for `Cc1cccc(COC(=O)N2CCc3ncsc3[C@H]2c2cc(Cl)ccc2OCC(=O)O)c1C` [Example 72, (R)-4-(2-Carboxymethoxy-5-chloro-phenyl)-6,7-dihydro-4H-thiazolo[5,4-c]pyridine-5-carboxylic acid 2,3-dimethyl-benzyl ester] here?
**A.** 1.2 nM

**Q.** How did the IC50 turn out when `O=C(O)COc1ccc(Cl)cc1[C@@H]1c2scnc2CCN1C(=O)OCCCF` [Example 74, (R)-4-(2-Carboxymethoxy-5-chloro-phenyl)-6,7-dihydro-4H-thiazolo[5,4-c]pyridine-5-carboxylic acid 3-fluoro-propyl ester] was run?
**A.** 1.4 nM

**Q.** For `O=C(O)COc1ccc(Cl)cc1[C@@H]1c2scnc2CCN1C(=O)OCc1ccccc1F` [Example 75, (R)-4-(2-Carboxymethoxy-5-chloro-phenyl)-6,7-dihydro-4H-thiazolo[5,4-c]pyridine-5-carboxylic acid 2-fluoro-benzyl ester], which IC50 is on record?
**A.** 0.6 nM
